From US11339161B2, “Triazolo pyridines as modulators of gamma-secretase” (Boehringer Ingelheim International GmbH, priority 2017, dated 2022)
Like-named read-outs stand apart in the source and are kept apart here.

Tests used:
CDK5/p35 = CDK5/p35 (Homo sapiens, UniProt Q00535); experiment: Z'-LYTE SelectScreen biochemical kinase assay CDK5/p35
Excerpt: (§1) Thermo Fisher Scientific SelectScreen™ Biochemical Kinase Profiling Service Z′-LYTE™ Screening Protocol and Assay Conditions Assay Theory
(§2) The […] biochemical assay employs a fluorescence-based, coupled-enzyme format and is based on the differential sensitivity of phosphorylated and non-phosphorylated peptides to proteolytic cleavage. The peptide substrate is labeled with two fluorophores—one at each end—that make up a FRET pair. In the primary reaction, the kinase transfers the gamma-phosphate of ATP to a single tyrosine, serine or threonine residue in a synthetic FRET-peptide. In the secondary reaction, a site-specific protease recognizes and cleaves non-phosphorylated FRET-peptides. Phosphorylation of FRET-peptides suppresses cleavage by the Development Reagent. Cleavage disrupts FRET between the donor (i.e., coumarin) and acceptor (i.e., fluorescein) fluorophores on the FRET-peptide, whereas uncleaved, phosphorylated FRET-peptides maintain FRET. A ratiometric method, which calculates the ratio (Emission Ratio=Coumarin emission (445 nm)/Fluorescein emission (520 nm)) of donor emission to acceptor emission after excitation of the donor fluorophore at 400 nm, is used to quantitate reaction progress, as shown in the equation below. A significant benefit of this ratiometric method for quantitating reaction progress is the elimination of well-to-well variations in FRET-peptide concentration and signal intensities. As a result, the assay yields very high Z′-factor values (>0.7) at a low percent phosphorylation. Both cleaved and uncleaved FRET-peptides contribute to the fluorescence signals and therefore to the Emission Ratio. The extent of phosphorylation of the FRET-peptide can be calculated from the Emission Ratio. The Emission Ratio will remain low if the FRET-peptide is phosphorylated (i.e., no kinase inhibition) and will be high if the FRET-peptide is non-phosphorylated (i.e., kinase inhibition).
(§3) The Test Compounds are screened in 1% DMSO (final) in the well. For 10 point titrations, 3-fold serial dilutions are conducted from the starting concentration of the customer's choosing.
(§4) All Peptide/Kinase Mixtures are diluted to a 2× working concentration in the appropriate Kinase Buffer (see section Kinase Specific Assay Conditions for a complete description).
(§5) All ATP Solutions are diluted to a 4× working concentration in Kinase Buffer (50 mM HEPES pH 7.5, 0.01% BRIJ-35, 10 mM MgCl2, 1 mM EGTA). ATP Km apparent is previously determined using a Z″-LYTE assay.
(§6) The Development Reagent is diluted in Development Buffer (see section Kinase-Specific Assay Conditions—Direct and Cascade for a complete description).
(§7) Bar-coded Corning, low volume NBS, black 384-well plate (Corning Cat. #4514) • 1. 100 nL—100× Test Compound in 100% DMSO • 2. 2.4 μL—Kinase buffer • 3. 5 μL—2× Peptide/Kinase Mixture • 4. 2.5 μL—4×ATP Solution • 5. 30—second plate shake • 6. 60—minute Kinase Reaction incubation at room temperature • 7. 5 μL—Development Reagent Solution • 8. 30—second plate shake • 9. 60—minute Development Reaction incubation at room temperature • 10. Read on fluorescence plate reader and analyze the data Z′-LYTE Assay Controls
(§8) SelectScreen Kinase Profiling Service uses XLfit from IDBS. The dose response curve is curve fit to model number 205 (sigmoidal dose-response model).
The 2×CDK5/p35/Ser/Thr 12 mixture is prepared in 50 mM HEPES pH 7.5, 0.01% BRIJ-35, 10 mM MgCl2, 1 mM EGTA. The final 10 μL Kinase Reaction consists of 0.14-1.3 ng CDK5/p35 and 2 μM Ser/Thr 12 in 50 mM HEPES pH 7.5, 0.01% BRIJ-35, 10 mM MgCl2, 1 mM EGTA. After the 1 hour Kinase Reaction incubation, 5 μL of a 1:4096 dilution of Development Reagent A is added.

FGFR2 = FGFR2 (Homo sapiens, UniProt P21802); experiment: Z'-LYTE SelectScreen biochemical kinase assay FGFR2
Excerpt: as §1, §2, §3, §4, §5, §6, §7, §8
(§9) The 2×FGFR2/Tyr 04 mixture is prepared in 50 mM HEPES pH 7.5, 0.01% BRIJ-35, 10 mM MgCl2, 4 mM MnCl2, 1 mM EGTA, 2 mM DTT. The final 10 μL Kinase Reaction consists of 0.19-1.99 ng FGFR2 and 2 μM Tyr 04 in 50 mM HEPES pH 7.5, 0.01% BRIJ-35, 10 mM MgCl2, 2 mM MnCl2, 1 mM EGTA, 1 mM DTT. After the 1 hour Kinase Reaction incubation, 5 μL of a 1:64 dilution of Development Reagent B is added.

KDR (VEGFR2) = KDR (VEGFR2) (Homo sapiens, UniProt P35968); experiment: Z'-LYTE SelectScreen biochemical kinase assay KDR (VEGFR2)
Excerpt: as §1, §2, §3, §4, §5, §6, §7, §8
The 2×KDR (VEGFR2)/Tyr 01 mixture is prepared in 50 mM HEPES pH 7.5, 0.01% BRIJ-35, 10 mM MgCl2, 1 mM EGTA. The final 10 μL Kinase Reaction consists of 1-30 ng KDR (VEGFR2) and 2 μM Tyr 01 in 50 mM HEPES pH 7.5, 0.01% BRIJ-35, 10 mM MgCl2, 1 mM EGTA. After the 1 hour Kinase Reaction incubation, 5 μL of a 1:256 dilution of Development Reagent B is added.

PDGFRA (PDGFR alpha) = PDGFRA (PDGFR alpha) (Homo sapiens, UniProt P16234); experiment: Z'-LYTE SelectScreen biochemical kinase assay PDGFRA (PDGFR alpha)
Excerpt: as §1, §2, §3, §4, §5, §6, §7, §8
as §9, with “2×PDGFRA (PDGFR alpha)/Tyr” for “2×FGFR2/Tyr”, “1.54-22.6” for “0.19-1.99”, “PDGFRA (PDGFR alpha)” for “FGFR2”

[1] = 10 μmolar compound concentration, ATP at Km app, read-out: CDK5/p35 inhibition
[2] = read-out: % Inhibition mean CDK5/p35
[3] = 10 μmolar compound concentration, ATP at Km app, read-out: FGFR2 inhibition
[4] = read-out: % Inhibition mean FGFR2
[5] = 10 μmolar compound concentration, ATP at Km app, read-out: KDR (VEGFR2) inhibition
[6] = read-out: % Inhibition mean KDR (VEGFR2)
[7] = 10 μmolar compound concentration, ATP at Km app, read-out: PDGFRA (PDGFR alpha) inhibition
[8] = read-out: % Inhibition mean PDGFRA (PDGFR alpha)

Chain of KDR (VEGFR2) (P35968 20-1356): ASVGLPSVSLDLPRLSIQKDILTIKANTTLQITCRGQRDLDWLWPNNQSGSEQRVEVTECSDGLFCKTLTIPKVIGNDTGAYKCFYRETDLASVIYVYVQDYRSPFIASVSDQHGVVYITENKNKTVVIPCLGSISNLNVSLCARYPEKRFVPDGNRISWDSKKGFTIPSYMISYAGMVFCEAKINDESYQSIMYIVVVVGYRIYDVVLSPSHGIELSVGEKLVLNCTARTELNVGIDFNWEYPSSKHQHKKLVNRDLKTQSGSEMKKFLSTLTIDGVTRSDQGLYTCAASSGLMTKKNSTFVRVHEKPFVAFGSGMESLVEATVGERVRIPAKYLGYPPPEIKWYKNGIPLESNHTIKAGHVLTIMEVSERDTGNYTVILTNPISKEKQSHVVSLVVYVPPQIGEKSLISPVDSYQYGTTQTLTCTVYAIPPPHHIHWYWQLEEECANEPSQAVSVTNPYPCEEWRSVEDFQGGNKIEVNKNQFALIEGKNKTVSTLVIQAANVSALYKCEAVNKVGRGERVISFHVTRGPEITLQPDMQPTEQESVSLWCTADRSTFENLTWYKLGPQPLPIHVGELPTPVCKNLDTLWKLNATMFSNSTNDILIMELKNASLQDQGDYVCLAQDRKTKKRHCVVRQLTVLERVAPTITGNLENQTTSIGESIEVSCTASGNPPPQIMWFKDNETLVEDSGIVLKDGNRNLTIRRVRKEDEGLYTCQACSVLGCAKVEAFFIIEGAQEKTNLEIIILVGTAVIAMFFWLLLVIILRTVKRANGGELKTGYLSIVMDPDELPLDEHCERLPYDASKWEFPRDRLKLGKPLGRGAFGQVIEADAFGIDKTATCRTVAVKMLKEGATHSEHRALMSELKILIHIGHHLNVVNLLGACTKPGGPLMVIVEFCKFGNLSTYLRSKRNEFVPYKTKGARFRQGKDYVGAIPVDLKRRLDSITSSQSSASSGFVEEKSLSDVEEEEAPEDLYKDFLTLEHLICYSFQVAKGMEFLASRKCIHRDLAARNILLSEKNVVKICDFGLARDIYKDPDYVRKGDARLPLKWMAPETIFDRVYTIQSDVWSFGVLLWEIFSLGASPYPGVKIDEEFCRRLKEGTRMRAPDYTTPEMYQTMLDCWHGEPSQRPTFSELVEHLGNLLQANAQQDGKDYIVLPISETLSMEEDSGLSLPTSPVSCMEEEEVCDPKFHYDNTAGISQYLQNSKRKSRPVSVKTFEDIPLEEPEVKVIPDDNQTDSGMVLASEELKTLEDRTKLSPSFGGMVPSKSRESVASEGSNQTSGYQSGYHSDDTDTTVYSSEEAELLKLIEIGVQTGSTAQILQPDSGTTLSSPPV
Chain of CDK5/p35 (Q00535 whole entry): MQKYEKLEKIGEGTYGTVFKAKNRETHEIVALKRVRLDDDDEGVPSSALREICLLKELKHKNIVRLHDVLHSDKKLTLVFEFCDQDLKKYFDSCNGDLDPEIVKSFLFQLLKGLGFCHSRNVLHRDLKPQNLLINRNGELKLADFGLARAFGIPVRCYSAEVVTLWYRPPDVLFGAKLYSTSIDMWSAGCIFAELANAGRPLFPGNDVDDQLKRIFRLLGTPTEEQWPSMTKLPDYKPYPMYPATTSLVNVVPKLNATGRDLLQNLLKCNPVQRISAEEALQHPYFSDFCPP
Chain of CDK5/p35 (Q15078 whole entry partner): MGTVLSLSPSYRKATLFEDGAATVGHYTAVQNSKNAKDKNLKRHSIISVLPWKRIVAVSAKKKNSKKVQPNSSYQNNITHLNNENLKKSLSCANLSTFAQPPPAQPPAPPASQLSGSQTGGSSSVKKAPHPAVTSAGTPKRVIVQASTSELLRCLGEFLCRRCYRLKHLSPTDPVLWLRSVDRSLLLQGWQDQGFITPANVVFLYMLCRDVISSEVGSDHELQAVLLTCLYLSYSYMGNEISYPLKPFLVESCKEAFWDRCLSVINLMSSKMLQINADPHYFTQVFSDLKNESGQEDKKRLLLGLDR
Chain of PDGFRA (PDGFR alpha) (P16234 24-1089): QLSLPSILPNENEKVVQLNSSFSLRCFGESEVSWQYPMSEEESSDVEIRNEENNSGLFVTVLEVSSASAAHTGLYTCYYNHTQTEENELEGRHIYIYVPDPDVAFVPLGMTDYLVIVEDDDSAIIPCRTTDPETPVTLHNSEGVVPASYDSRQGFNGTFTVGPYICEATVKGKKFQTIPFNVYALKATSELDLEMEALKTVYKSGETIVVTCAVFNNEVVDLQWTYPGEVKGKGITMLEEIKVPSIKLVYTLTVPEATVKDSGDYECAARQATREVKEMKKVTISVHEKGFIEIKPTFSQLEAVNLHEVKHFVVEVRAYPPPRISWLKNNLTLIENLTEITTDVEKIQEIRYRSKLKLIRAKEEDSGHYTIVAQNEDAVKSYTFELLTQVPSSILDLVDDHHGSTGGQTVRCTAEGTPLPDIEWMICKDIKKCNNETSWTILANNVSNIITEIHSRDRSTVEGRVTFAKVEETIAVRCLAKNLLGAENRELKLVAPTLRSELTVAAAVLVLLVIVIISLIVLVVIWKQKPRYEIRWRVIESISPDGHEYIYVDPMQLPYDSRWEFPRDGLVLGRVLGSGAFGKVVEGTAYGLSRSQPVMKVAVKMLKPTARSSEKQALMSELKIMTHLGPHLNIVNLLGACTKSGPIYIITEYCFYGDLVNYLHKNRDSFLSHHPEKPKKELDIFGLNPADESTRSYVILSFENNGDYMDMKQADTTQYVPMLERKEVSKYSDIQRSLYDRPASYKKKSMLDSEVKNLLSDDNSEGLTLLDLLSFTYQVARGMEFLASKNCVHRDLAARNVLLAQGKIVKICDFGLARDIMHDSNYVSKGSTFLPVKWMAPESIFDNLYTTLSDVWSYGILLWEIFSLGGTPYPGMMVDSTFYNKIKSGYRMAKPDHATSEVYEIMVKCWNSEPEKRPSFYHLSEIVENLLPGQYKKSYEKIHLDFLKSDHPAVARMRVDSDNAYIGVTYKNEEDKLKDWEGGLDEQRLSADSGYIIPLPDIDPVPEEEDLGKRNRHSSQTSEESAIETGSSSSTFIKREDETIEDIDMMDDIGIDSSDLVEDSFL
Chain of FGFR2 (P21802 22-821): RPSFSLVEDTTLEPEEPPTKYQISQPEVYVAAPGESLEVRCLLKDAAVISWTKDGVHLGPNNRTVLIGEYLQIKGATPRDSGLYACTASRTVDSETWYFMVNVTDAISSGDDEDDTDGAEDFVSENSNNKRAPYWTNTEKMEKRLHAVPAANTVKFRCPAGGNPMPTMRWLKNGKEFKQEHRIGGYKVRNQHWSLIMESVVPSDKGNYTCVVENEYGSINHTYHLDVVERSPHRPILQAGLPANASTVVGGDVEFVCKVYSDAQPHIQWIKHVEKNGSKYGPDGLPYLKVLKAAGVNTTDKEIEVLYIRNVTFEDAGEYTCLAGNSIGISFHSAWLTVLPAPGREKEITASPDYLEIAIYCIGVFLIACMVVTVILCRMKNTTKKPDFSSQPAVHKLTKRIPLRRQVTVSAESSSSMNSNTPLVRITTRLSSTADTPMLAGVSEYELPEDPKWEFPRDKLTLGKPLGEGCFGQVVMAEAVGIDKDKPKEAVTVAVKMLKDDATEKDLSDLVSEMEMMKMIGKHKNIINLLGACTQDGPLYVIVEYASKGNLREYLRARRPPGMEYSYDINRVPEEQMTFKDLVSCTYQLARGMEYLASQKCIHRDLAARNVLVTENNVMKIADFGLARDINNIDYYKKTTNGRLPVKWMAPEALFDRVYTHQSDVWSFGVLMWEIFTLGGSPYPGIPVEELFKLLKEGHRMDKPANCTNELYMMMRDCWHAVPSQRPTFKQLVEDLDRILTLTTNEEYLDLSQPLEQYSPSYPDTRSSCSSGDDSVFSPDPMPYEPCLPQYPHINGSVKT

Row | SMILES | inhibition at 10 µM (CDK5/p35; [1]) [%] | inhibition at 10 µM (CDK5/p35; [2]) [%] | inhibition at 10 µM (FGFR2; [3]) [%] | inhibition at 10 µM (FGFR2; [4]) [%] | inhibition at 10 µM (KDR (VEGFR2); [5]) [%] | inhibition at 10 µM (KDR (VEGFR2); [6]) [%] | inhibition at 10 µM (PDGFRA (PDGFR alpha); [7]) [%] | inhibition at 10 µM (PDGFRA (PDGFR alpha); [8]) [%]
1 | Cc1cc(F)ccc1-c1cccn2nc(NC3CCc4c(cnn4CC(C)C)C3)nc12 (stereo not shown) [Example 45, [8-(4-fluoro-2-methyl-phenyl)-[1,2,4]triazolo[1,5-a]pyridine-2-yl]-(1-isobutyl-4,5,6,7-tetrahydro-1H-indazol-5-yl)-amine] | < 40 | 8 | < 40 | 16 | < 40 | -10 | < 40 | 30
2 | CCn1ncc2c1CCC(Nc1nc3c(-c4ccc(F)cc4C)cccn3n1)C2 (stereo not shown) [Example 42, (1-Ethyl-4,5,6,7-tetrahydro-1H-indazol-5-yl)-[8-(4-fluoro-2-methyl-phenyl)-[1,2,4]triazolo[1,5-a]pyridine-2-yl]-amine] | < 40 | 39 | < 40 | 26 | < 40 | -3 | < 40 | 12
3 | CCc1nn(C)c2c1CCC(Nc1nc3c(-c4ccc(F)cc4C)cccn3n1)C2 (stereo not shown) [Example 54, (3-Ethyl-1-methyl-4,5,6,7-tetrahydro-1H-indazol-6-yl)-[8-(4-fluoro-2-methyl-phenyl)-[1,2,4]triazolo[1,5-a]pyridine-2-yl]-amine] | < 40 | 18 | < 40 | 25 | < 40 | 5 | < 40 | 30
4 | CCCCn1ncc2c1CCC(Nc1nc3c(-c4ccc(F)cc4C)cccn3n1)C2 (stereo not shown) [Example 46, [8-(4-fluoro-2-methyl-phenyl)-[1,2,4]triazolo[1,5-a]pyridine-2-yl]-(1-butyl-4,5,6,7-tetrahydro-1H-indazol-5-yl)-amine] | < 40 | 34 | < 40 | 26 | < 40 | 3 | < 40 | 25
5 | CCn1ncc2c1C(C)CC(Nc1nc3c(-c4cc(F)c(F)c(F)c4)cccn3n1)C2 (stereo not shown) [Example 49, (1-Ethyl-7-methyl-4,5,6,7-tetrahydro-1H-indazol-5-yl)-[8-(3,4,5-trifluoro-phenyl)-[1,2,4]triazolo[1,5-a]pyridine-2-yl]-amine] | < 40 | 7 | < 40 | 31 | < 40 | 8 | < 40 | 29

Other lines, results leading:

Row | inhibition at 10 µM (CDK5/p35; [1]) [%] | inhibition at 10 µM (CDK5/p35; [2]) [%] | inhibition at 10 µM (FGFR2; [3]) [%] | inhibition at 10 µM (FGFR2; [4]) [%] | inhibition at 10 µM (KDR (VEGFR2); [5]) [%] | inhibition at 10 µM (KDR (VEGFR2); [6]) [%] | inhibition at 10 µM (PDGFRA (PDGFR alpha); [7]) [%] | inhibition at 10 µM (PDGFRA (PDGFR alpha); [8]) [%] | SMILES
6 | < 40 | 26 | < 40 | 22 | < 40 | 18 | < 40 | 29 | CCn1ncc2c1CCC(Nc1nc3c(-c4ccccc4)cccn3n1)C2 (stereo not shown) [Example 57, (1-Ethyl-4,5,6,7-tetrahydro-1H-indazol-5-yl)-(8-phenyl-[1,2,4]triazolo[1,5-a]pyridine-2-yl)-amine]
7 | < 40 | 10 | < 40 | 13 | < 40 | -15 | < 40 | 13 | CCn1ncc2c1CC[C@H](Nc1nc3c(-c4ccc(F)c(Cl)c4)cccn3n1)C2 [Example S-61, (S)-[8-(3-Chloro-4-fluoro-phenyl)-[1,2,4]triazolo[1,5-a]pyridine-2-yl]-(1-ethyl-4,5,6,7-tetrahydro-1H-indazol-5-yl)-amine]
8 | < 40 | 25 | < 40 | 12 | < 40 | 2 | < 40 | 18 | CCn1ncc2c1CC[C@@H](Nc1nc3c(-c4ccc(F)c(Cl)c4)cccn3n1)C2 [Example R-61, (R)-[8-(3-Chloro-4-fluoro-phenyl)-[1,2,4]triazolo[1,5-a]pyridine-2-yl]-(1-ethyl-4,5,6,7-tetrahydro-1H-indazol-5-yl)-amine]
9 | 40 to 80 | 47 | < 40 | 16 | < 40 | 8 | < 40 | 20 | CCn1ncc2c1CCC(Nc1nc3c(-c4cccnc4)cccn3n1)C2 (stereo not shown) [Example 63, (1-Ethyl-4,5,6,7-tetrahydro-1H-indazol-5-yl)-(8-pyridin-3-yl-[1,2,4]triazolo[1,5-a]pyridine-2-yl)-amine]
10 | 40 to 80 | 58 | < 40 | 12 | < 40 | 12 | < 40 | 17 | CCn1ncc2c1CCC(Nc1nc3c(-c4cncc(OC)c4)cccn3n1)C2 (stereo not shown) [Example 70, (1-Ethyl-4,5,6,7-tetrahydro-1H-indazol-5-yl)-[8-(5-methoxy-pyridin-3-yl)-[1,2,4]triazolo[1,5-a]pyridine-2-yl]-amine]
11 | 40 to 80 | 44 | < 40 | 28 | < 40 | 18 | < 40 | 23 | CCn1ncc2c1CCC(Nc1nc3c(-c4cnccc4OC)cccn3n1)C2 (stereo not shown) [Example 68, (1-Ethyl-4,5,6,7-tetrahydro-1H-indazol-5-yl)-[8-(4-methoxy-pyridin-3-yl)-[1,2,4]triazolo[1,5-a]pyridine-2-yl]-amine]
